Tests used:
[1] = pH and solubility of solutions, suspensions and formulae; assay type: physicochemical; settings: 36 mM (zinc acetate and zinc carbonate also 72 mM)
[2] = tested on: pure cultures of microorganisms resident on human axillary skin; settings: 6.0 mM arginine; Staph. epidermidis, Staph. haemolyticus and P. avidum
Protocol: Pure cultures of the numerically most prominent microorganisms normally resident on human axillary skin (see Table 1) were surveyed for their effects on (i) pH, (ii) Eh, (iii) ability to generate malodor and (iv) ability to generate hydrogen peroxide. Four hour incubation experiments were conducted, in which each of a wide range of carbohydrate and amino acid substrates (see Table 1) were surveyed for malodor production and related changes in pH and Eh thereto.
Each microorganism was recovered from its frozen state at −70° C. and grown at 37° C. in 10 ml of appropriate and respective culture media for a period between 24 and 48 hours (see Table 1). Incubations were carried out to middle and late exponential stages of bacterial growth under the incubation conditions indicated in Table 1. A 1.5 ml inoculum was transferred therefrom to polypropylene bottles containing 150 ml of the initial growth medium. This was then incubated at 37° C. for 24 to 48 hours. Bacteria were harvested by centrifugation (DuPone, Sorvall, Newtown, Conn.) at 10,000 g and 4° C. for 20 min. […] The sediment was then washed with sterile distilled water to remove residual growth medium. This was done by centrifuging the bacterial sediment three times at 1,740 g for 15 min at 4° C.
Each pure culture was pre-incubated at 37° C. at pH 7.0 to exhaust or reduce any stored carbohydrate and other carbon/energy sources acquired during growth in culture.
Both of these electrodes were connected to a second pH meter (pH M26 Radiometer Copenhagen NV, Denmark) and used here as a millivoltmeter. For the Eh measurements, when the Eh electrode was immersed in an incubation mixture, each Eh reading was recorded after allowing several seconds for each reading to stabilize. The Eh value was related to that of the hydrogen electrode by adding to each reading the difference between the E0 value for the Red Rod reference element-mercury and hydrogen electrodes—i.e. 270 my at 25° C.
At each time point, the odor was determined organoleptically by immersing a solid glass rod into each incubation mixture, stirring gently 3 times and then removing and carefully smelling the rod after 5 seconds. The intensity of the odor was assessed on a 0 to 4 numerical scale (0—no odor, 1—mild odor, 2—moderate odor, 3—strong odor, and 4—very strong odor).

[3] = tested on: Staph. epidermidis; test: Arginolysis: pH during incubation with arginine; assay type: cell-based, Staphylococcus epidermidis; settings: 6.0 mM arginine
Protocol: (§1) Each microorganism was recovered from its frozen state at −70° C. and grown at 37° C. in 10 ml of appropriate and respective culture media for a period between 24 and 48 hours (see Table 1). Incubations were carried out to middle and late exponential stages of bacterial growth under the incubation conditions indicated in Table 1. A 1.5 ml inoculum was transferred therefrom to polypropylene bottles containing 150 ml of the initial growth medium. This was then incubated at 37° C. for 24 to 48 hours. Bacteria were harvested by centrifugation (DuPone, Sorvall, Newtown, Conn.) at 10,000 g and 4° C. for 20 min. The volume of bacterial pellet obtained was between about 2.5 and 3.5 ml. The sediment was then washed with sterile distilled water to remove residual growth medium. This was done by centrifuging the bacterial sediment three times at 1,740 g for 15 min at 4° C. […]

[4] = tested on: P. avidum; test: Arginolysis: pH during incubation with arginine; assay type: cell-based, Propionibacterium avidum; settings: 6.0 mM arginine
Protocol: as §1

[5] = tested on: Staph. haemolyticus; test: Arginolysis: pH during incubation with arginine; assay type: cell-based, Staphylococcus haemolyticus; settings: 6.0 mM arginine, 4 hours
Protocol: as §1

[6] = tested on: C. striatum, Staph. epidermidis or a 1:1 mixture thereof; settings: zinc acetate, CIL and either arginine or arginine bicarbonate, pH 4.0 to 8.0, 4 hours, no phenylalanine
Source text: The pH of the medium with each of the different zinc salts needed some adjustment, which was done with 1 M HCl or 1 M NaOH depending upon the pH of the stock solutions of each zinc salt employed.

Row | Compound | pH of stock solution in de-ionized water [1] | Odor during arginolysis [2] | pH of the incubation mixture ([3]; end of the 4 hours of incubation) | pH of the incubation mixture ([3]; start pH 7.0, within the first 15 min) | pH rise above the level with Staph. epidermidis [4] | pH reached during arginolysis [5] | Sulfurous odor and Eh [6]
1 | [Cl-].[Cl-].[Zn+2] [Zinc chloride] | 6.7 | – | – | – | – | – | –
2 | N=C(N)NCCC[C@H](N)C(=O)O [arginine] | – | No odor of significance | 7.7 | 7.4 | about 0.3 pH units | 8.2 | No sulfurous odor nor corresponding decrease in the Eh
